Reference: patent US20100267561A1, “HERBICIDAL PYRIDAZINONE DERIVATIVES” (priority 2007, published 2010)

Columns and labels:
Assay in all cases: Test E pre-/postemergence plant response
Type in all cases: in vivo
[1] = test system: southern (S.) sandbur (Cenchrus echinatus); conditions: scale 0 to 100
Outline: (§1)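 Plants scored visually versus controls on a 0–100 scale (100 = complete control) 14 to 21 days after treatment in the greenhouse. Test chemicals in a surfactant-containing non-phytotoxic solvent were applied to soil preemergence or to 1- to 4-leaf plants, 2–18 cm tall.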

[2] = test system: johnsongrass (Sorghum halepense); conditions: scale 0 to 100
Outline: as §1

[3] = test system: common purslane (Portulaca oleracea); conditions: scale 0 to 100
Outline: as §1

[4] = test system: common mallow (Malva sylvestris); conditions: Postemergence, scale 0 to 100
Outline: as §1

[5] = test system: common groundsel (Senecio vulgaris); conditions: Postemergence, scale 0 to 100
Outline: as §1

[6] = test system: Italian ryegrass (Lolium multiflorum); conditions: scale 0 to 100
Outline: as §1

[7] = test system: green foxtail (Setaria viridis); conditions: scale 0 to 100
Outline: as §1

[8] = test system: dallisgrass (Paspalum dilatatum); conditions: scale 0 to 100
Outline: as §1

[9] = test system: purple nutsedge (Cyperus rotundus); conditions: scale 0 to 100
Outline: as §1

[10] = test system: barnyardgrass (Echinochloa crus-galli); conditions: scale 0 to 100
Outline: as §1

[11] = test system: surinam grass (Brachiaria decumbens); conditions: scale 0 to 100
Outline: as §1

[12] = test system: naked crabgrass (Digitaria nuda); conditions: scale 0 to 100
Outline: as §1

[13] = test system: annual bluegrass (Poa annua); conditions: scale 0 to 100
Outline: as §1

[14] = test system: guineagrass (Panicum maximum); conditions: scale 0 to 100
Outline: as §1

[15] = test system: itchgrass (Rottboellia cochinchinensis); conditions: scale 0 to 100
Outline: as §1

CCc1cc(-c2ccc(Cl)cc2)nn1-c1c(O)cnn(C)c1=O [Compound 21]
Plant response rating, Sandbur, S. ([1]; 16 g ai/ha, Preemergence): 98
Plant response rating, Sandbur, S. ([1]; 31 g ai/ha, Preemergence): 100
Plant response rating, Sandbur, S. ([1]; 62 g ai/ha, Preemergence): 100
Plant response rating, Sandbur, S. ([1]; Postemergence, 8 g ai/ha): 80
Plant response rating, Sandbur, S. ([1]; Postemergence, 16 g ai/ha): 80
Plant response rating, Sandbur, S. ([1]; Postemergence, 31 g ai/ha): 95
Plant response rating, Sandbur, S. ([1]; Postemergence, 62 g ai/ha): 100
Plant response rating, Johnsongrass ([2]; 16 g ai/ha, Preemergence): 75
Plant response rating, Johnsongrass ([2]; 31 g ai/ha, Preemergence): 90
Plant response rating, Johnsongrass ([2]; 62 g ai/ha, Preemergence): 95
Plant response rating, Johnsongrass ([2]; Postemergence, 8 g ai/ha): 50
Plant response rating, Johnsongrass ([2]; Postemergence, 16 g ai/ha): 65
Plant response rating, Johnsongrass ([2]; Postemergence, 31 g ai/ha): 85
Plant response rating, Johnsongrass ([2]; Postemergence, 62 g ai/ha): 100
Plant response rating, Purslane ([3]; 16 g ai/ha, Preemergence): 0
Plant response rating, Purslane ([3]; 31 g ai/ha, Preemergence): 0
Plant response rating, Purslane ([3]; 62 g ai/ha, Preemergence): 0
Plant response rating, Purslane ([3]; Postemergence, 8 g ai/ha): 0
Plant response rating, Purslane ([3]; Postemergence, 16 g ai/ha): 0
Plant response rating, Purslane ([3]; Postemergence, 31 g ai/ha): 0
Plant response rating, Purslane ([3]; Postemergence, 62 g ai/ha): 0
Plant response rating, Mallow ([4]; 8 g ai/ha): 0
Plant response rating, Mallow ([4]; 16 g ai/ha): 0
Plant response rating, Mallow ([4]; 31 g ai/ha): 0
Plant response rating, Mallow ([4]; 62 g ai/ha): 0
Plant response rating, Groundsel ([5]; 8 g ai/ha): 0
Plant response rating, Groundsel ([5]; 62 g ai/ha): 0
Plant response rating, Ryegrass, Italian ([6]; 16 g ai/ha, Preemergence): 100
Plant response rating, Ryegrass, Italian ([6]; 31 g ai/ha, Preemergence): 100
Plant response rating, Ryegrass, Italian ([6]; 62 g ai/ha, Preemergence): 100
Plant response rating, Ryegrass, Italian ([6]; Postemergence, 8 g ai/ha): 80
Plant response rating, Ryegrass, Italian ([6]; Postemergence, 16 g ai/ha): 98
Plant response rating, Ryegrass, Italian ([6]; Postemergence, 31 g ai/ha): 100
Plant response rating, Ryegrass, Italian ([6]; Postemergence, 62 g ai/ha): 100
Plant response rating, Foxtail, Green ([7]; 8 g ai/ha, Preemergence): 75
Plant response rating, Foxtail, Green ([7]; 16 g ai/ha, Preemergence): 100
Plant response rating, Foxtail, Green ([7]; 31 g ai/ha, Preemergence): 100
Plant response rating, Foxtail, Green ([7]; 62 g ai/ha, Preemergence): 100
Plant response rating, Foxtail, Green ([7]; Postemergence, 8 g ai/ha): 65
Plant response rating, Foxtail, Green ([7]; Postemergence, 16 g ai/ha): 75
Plant response rating, Foxtail, Green ([7]; Postemergence, 31 g ai/ha): 95
Plant response rating, Foxtail, Green ([7]; Postemergence, 62 g ai/ha): 100
Plant response rating, Dallisgrass ([8]; 8 g ai/ha, Preemergence): 80
Plant response rating, Dallisgrass ([8]; 16 g ai/ha, Preemergence): 100
Plant response rating, Dallisgrass ([8]; 31 g ai/ha, Preemergence): 100
Plant response rating, Dallisgrass ([8]; 62 g ai/ha, Preemergence): 100
Plant response rating, Dallisgrass ([8]; Postemergence, 8 g ai/ha): 75
Plant response rating, Dallisgrass ([8]; Postemergence, 16 g ai/ha): 80
Plant response rating, Dallisgrass ([8]; Postemergence, 31 g ai/ha): 85
Plant response rating, Dallisgrass ([8]; Postemergence, 62 g ai/ha): 98
Plant response rating, Nutsedge, Purple ([9]; 16 g ai/ha, Preemergence): 0
Plant response rating, Nutsedge, Purple ([9]; 31 g ai/ha, Preemergence): 0
Plant response rating, Nutsedge, Purple ([9]; 62 g ai/ha, Preemergence): 0
Plant response rating, Nutsedge, Purple ([9]; Postemergence, 8 g ai/ha): 0
Plant response rating, Nutsedge, Purple ([9]; Postemergence, 16 g ai/ha): 0
Plant response rating, Nutsedge, Purple ([9]; Postemergence, 31 g ai/ha): 0
Plant response rating, Nutsedge, Purple ([9]; Postemergence, 62 g ai/ha): 0
Plant response rating, Barnyardgrass ([10]; 8 g ai/ha, Preemergence): 95
Plant response rating, Barnyardgrass ([10]; 16 g ai/ha, Preemergence): 100
Plant response rating, Barnyardgrass ([10]; 31 g ai/ha, Preemergence): 100
Plant response rating, Barnyardgrass ([10]; 62 g ai/ha, Preemergence): 100
Plant response rating, Barnyardgrass ([10]; Postemergence, 8 g ai/ha): 100
Plant response rating, Barnyardgrass ([10]; Postemergence, 16 g ai/ha): 100
Plant response rating, Barnyardgrass ([10]; Postemergence, 31 g ai/ha): 100
Plant response rating, Barnyardgrass ([10]; Postemergence, 62 g ai/ha): 100
Plant response rating, Surinam Grass ([11]; 16 g ai/ha, Preemergence): 100
Plant response rating, Surinam Grass ([11]; 31 g ai/ha, Preemergence): 100
Plant response rating, Surinam Grass ([11]; 62 g ai/ha, Preemergence): 100
Plant response rating, Surinam Grass ([11]; Postemergence, 8 g ai/ha): 95
Plant response rating, Surinam Grass ([11]; Postemergence, 16 g ai/ha): 95
Plant response rating, Surinam Grass ([11]; Postemergence, 31 g ai/ha): 100
Plant response rating, Surinam Grass ([11]; Postemergence, 62 g ai/ha): 100
Plant response rating, Crabgrass, Naked ([12]; 16 g ai/ha, Preemergence): 95
Plant response rating, Crabgrass, Naked ([12]; 31 g ai/ha, Preemergence): 100
Plant response rating, Crabgrass, Naked ([12]; 62 g ai/ha, Preemergence): 100
Plant response rating, Crabgrass, Naked ([12]; Postemergence, 8 g ai/ha): 80
Plant response rating, Crabgrass, Naked ([12]; Postemergence, 16 g ai/ha): 90
Plant response rating, Crabgrass, Naked ([12]; Postemergence, 31 g ai/ha): 98
Plant response rating, Crabgrass, Naked ([12]; Postemergence, 62 g ai/ha): 100
Plant response rating, Bluegrass ([13]; 8 g ai/ha, Preemergence): 0
Plant response rating, Bluegrass ([13]; 16 g ai/ha, Preemergence): 0
Plant response rating, Bluegrass ([13]; 31 g ai/ha, Preemergence): 0
Plant response rating, Bluegrass ([13]; 62 g ai/ha, Preemergence): 0
Plant response rating, Bluegrass ([13]; Postemergence, 8 g ai/ha): 0
Plant response rating, Bluegrass ([13]; Postemergence, 16 g ai/ha): 0
Plant response rating, Bluegrass ([13]; Postemergence, 31 g ai/ha): 10
Plant response rating, Bluegrass ([13]; Postemergence, 62 g ai/ha): 15
Plant response rating, Guineagrass ([14]; 16 g ai/ha, Preemergence): 100
Plant response rating, Guineagrass ([14]; 31 g ai/ha, Preemergence): 100
Plant response rating, Guineagrass ([14]; 62 g ai/ha, Preemergence): 100
Plant response rating, Guineagrass ([14]; Postemergence, 8 g ai/ha): 95
Plant response rating, Guineagrass ([14]; Postemergence, 16 g ai/ha): 98
Plant response rating, Guineagrass ([14]; Postemergence, 31 g ai/ha): 100
Plant response rating, Guineagrass ([14]; Postemergence, 62 g ai/ha): 100
Plant response rating, Itchgrass ([15]; 16 g ai/ha, Preemergence): 65
Plant response rating, Itchgrass ([15]; 31 g ai/ha, Preemergence): 75
Plant response rating, Itchgrass ([15]; 62 g ai/ha, Preemergence): 80
Plant response rating, Itchgrass ([15]; Postemergence, 8 g ai/ha): 50
Plant response rating, Itchgrass ([15]; Postemergence, 16 g ai/ha): 65
Plant response rating, Itchgrass ([15]; Postemergence, 31 g ai/ha): 75
Plant response rating, Itchgrass ([15]; Postemergence, 62 g ai/ha): 75
